Reference: patent US20260144788A1, “COMPOUND FOR SHP2 PROTEIN DEGRADATION AND MEDICAL USES THEREOF” (UBIX THERAPEUTICS, INC., priority 2022, published 2026)

Biological target: T1, SHP2 protein (Homo sapiens, UniProt Q06124)
T1 sequence (Q06124 1-593): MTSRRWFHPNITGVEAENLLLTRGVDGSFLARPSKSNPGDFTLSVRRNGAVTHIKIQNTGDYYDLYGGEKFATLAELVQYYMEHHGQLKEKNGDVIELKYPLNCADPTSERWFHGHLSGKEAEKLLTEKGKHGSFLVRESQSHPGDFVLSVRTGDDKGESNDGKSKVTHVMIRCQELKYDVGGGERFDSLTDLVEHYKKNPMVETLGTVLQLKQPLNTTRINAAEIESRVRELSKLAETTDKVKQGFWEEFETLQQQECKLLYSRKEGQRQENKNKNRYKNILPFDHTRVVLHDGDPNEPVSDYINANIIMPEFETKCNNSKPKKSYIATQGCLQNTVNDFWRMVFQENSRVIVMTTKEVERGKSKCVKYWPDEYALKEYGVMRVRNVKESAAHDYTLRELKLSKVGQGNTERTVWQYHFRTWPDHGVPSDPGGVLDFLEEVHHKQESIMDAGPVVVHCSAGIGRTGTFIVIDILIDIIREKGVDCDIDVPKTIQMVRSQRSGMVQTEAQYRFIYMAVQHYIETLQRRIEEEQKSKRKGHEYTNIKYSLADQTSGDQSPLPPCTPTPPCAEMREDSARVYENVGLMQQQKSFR
Experiment: Measurement of SHP2 protein degradation in NCI-H358 cells (western blotting)
Format: cell-based
Set-up: endogenous in cells; host or cells: NCI-H358
Conditions: harvested after 24 hours
Method in brief: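 H358 cells in RPMI1640/25 mM HEPES/10% FBS, cultured 24 h, then exposed to compound at final 0.001, 0.01 and 0.1 μM for 24 h against a DMSO control. Lysates were normalised for protein by BCA and probed by western blot for SHP2, with GAPDH as loading control.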

SHP2% degradation (0.01 μM)	SHP2% degradation (0.1 μM)	Compound
53.0%	99.0%	Cc1ncsc1-c1ccc(CNC(=O)[C@@H]2C[C@@H](O)CN2C(=O)[C@@H](NC(=O)C2(F)CC2)C(C)(C)C)c(OC2CCN(C(=O)C3CN(c4nccc(Sc5cnc(N6CCC(C)(CN)CC6)cn5)c4Cl)C3)CC2)c1 [Example 63, (2S,4R)—N-(2-((1-(1-(4-((5-(4-(aminomethyl)-4-methylpiperidin-1-yl)pyrazin-2-yl)thio)-3-chloropyridin-2-yl)azetidine-3-carbonyl)piperidin-4-yl)oxy)-4-(4-methylthiazol-5-yl)benzyl)-1-((S)-2-(1-fluorocyclopropane-1-carboxamido)-3,3-dimethylbutanoyl)-4-hydroxypyrrolidine-2-carboxamide]
87.9%	99.8%	Cc1ncsc1-c1ccc(CNC(=O)[C@@H]2C[C@@H](O)CN2C(=O)[C@@H](NC(=O)C2(F)CC2)C(C)(C)C)c(OC2CCN(C(=O)CC3CN(c4nccc(Sc5cnc(N6CCC(C)(CN)CC6)cn5)c4Cl)C3)CC2)c1 [Example 64, (2S,4R)—N-(2-((1-(2-(1-(4-((5-(4-(aminomethyl)-4-methylpiperidin-1-yl)pyrazin-2-yl)thio)-3-chloropyridin-2-yl)azetidin-3-yl)acetyl)piperidin-4-yl)oxy)-4-(4-methylthiazol-5-yl)benzyl)-1-((S)-2-(1-fluorocyclopropane-1-carboxamido)-3,3-dimethylbutanoyl)-4-hydroxypyrrolidine-2-carboxamide]
94.5%	96.9%	Cc1ncsc1-c1ccc(CNC(=O)[C@@H]2C[C@@H](O)CN2C(=O)[C@@H](NC(=O)C2(F)CC2)C(C)(C)C)c(OC2CCN(C(=O)C3CCN(c4nccc(Sc5cnc(N6CCC7(CC6)CO[C@@H](C)[C@H]7N)cn5)c4Cl)CC3)CC2)c1 [Example 67, (2S,4R)—N-(2-((1-(1-(4-((5-((3S,4S)-4-amino-3-methyl-2-oxa-8-azaspiro[4.5]decan-8-yl)pyrazin-2-yl)thio)-3-chloropyridin-2-yl)piperidine-4-carbonyl)piperidin-4-yl)oxy)-4-(4-methylthiazol-5-yl)benzyl)-1-((S)-2-(1-fluorocyclopropane-1-carboxamido)-3,3-dimethylbutanoyl)-4-hydroxypyrrolidine-2-carboxamide]
90.0%	98.7%	CC(=O)N[C@H](C(=O)N1C[C@H](O)C[C@H]1C(=O)NCc1ccc(-c2scnc2C)cc1OC1CCN(C(=O)C2CCN(c3nccc(Sc4cnc(N5CCC(C)(N)CC5)cn4)c3Cl)CC2)CC1)C(C)(C)C [Example 76, (2S,4R)-1-((S)-2-acetamido-3,3-dimethylbutanoyl)-N-(2-((1-(1-(4-((5-(4-amino-4-methylpiperidin-1-yl)pyrazin-2-yl)thio)-3-chloropyridin-2-yl)piperidine-4-carbonyl)piperidin-4-yl)oxy)-4-(4-methylthiazol-5-yl)benzyl)-4-hydroxypyrrolidine-2-carboxamide]
94.4%	98.0%	CC(=O)N[C@H](C(=O)N1C[C@H](O)C[C@H]1C(=O)NCc1ccc(-c2scnc2C)cc1OC1CCN(C(=O)C2CCN(c3nccc(Sc4cnc(N5CCC6(CC5)CO[C@@H](C)[C@H]6N)cn4)c3Cl)CC2)CC1)C(C)(C)C [Example 77, (2S,4R)-1-((S)-2-acetamido-3,3-dimethylbutanoyl)-N-(2-((1-(1-(4-((5-((3S,4S)-4-amino-3-methyl-2-oxa-8-azaspiro[4.5]decan-8-yl)pyrazin-2-yl)thio)-3-chloropyridin-2-yl)piperidine-4-carbonyl)piperidin-4-yl)oxy)-4-(4-methylthiazol-5-yl)benzyl)-4-hydroxypyrrolidine-2-carboxamide]
98.0%	99.4%	CC(=O)N[C@H](C(=O)N1C[C@H](O)C[C@H]1C(=O)NCc1ccc(-c2scnc2C)cc1OC1CCN(C(=O)C2CCN(c3nccc(Sc4cnc(N5CCC(C)(CN)CC5)c(CO)n4)c3Cl)CC2)CC1)C(C)(C)C [Example 78, (2S,4R)-1-((S)-2-acetamido-3,3-dimethylbutanoyl)-N-(2-((1-(1-(4-((5-(4-(aminomethyl)-4-methylpiperidin-1-yl)-6-(hydroxymethyl)pyrazin-2-yl)thio)-3-chloropyridin-2-yl)piperidine-4-carbonyl)piperidin-4-yl)oxy)-4-(4-methylthiazol-5-yl)benzyl)-4-hydroxypyrrolidine-2-carboxamide]
96.1%	99.9%	CC(=O)N[C@H](C(=O)N1C[C@H](O)C[C@H]1C(=O)NCc1ccc(-c2scnc2C)cc1OC1CCN(C(=O)C2CCN(c3nccc(Sc4cnc(N5CCC(C)(N)CC5)c(CO)n4)c3Cl)CC2)CC1)C(C)(C)C [Example 79, (2S,4R)-1-((S)-2-acetamido-3,3-dimethylbutanoyl)-N-(2-((1-(1-(4-((5-(4-amino-4-methylpiperidin-1-yl)-6-(hydroxymethyl)pyrazin-2-yl)thio)-3-chloropyridin-2-yl)piperidine-4-carbonyl)piperidin-4-yl)oxy)-4-(4-methylthiazol-5-yl)benzyl)-4-hydroxypyrrolidine-2-carboxamide]
99.6%	99.5%	CC(=O)N[C@H](C(=O)N1C[C@H](O)C[C@H]1C(=O)NCc1ccc(-c2scnc2C)cc1OC1CCN(C(=O)C2CCN(c3nccc(Sc4cnc(N5CCC6(CC5)CO[C@@H](C)[C@H]6N)c(CO)n4)c3Cl)CC2)CC1)C(C)(C)C [Example 80, (2S,4R)-1-((S)-2-acetamido-3,3-dimethylbutanoyl)-N-(2-((1-(1-(4-((5-((3S,4S)-4-amino-3-methyl-2-oxa-8-azaspiro[4.5]decan-8-yl)-6-(hydroxymethyl)pyrazin-2-yl)thio)-3-chloropyridin-2-yl)piperidine-4-carbonyl)piperidin-4-yl)oxy)-4-(4-methylthiazol-5-yl)benzyl)-4-hydroxypyrrolidine-2-carboxamide]
85.6%	99.6%	CC(=O)N[C@H](C(=O)N1C[C@H](O)C[C@H]1C(=O)NCc1ccc(-c2scnc2C)cc1OC1CCN(C(=O)C2CCN(c3nccc(Sc4nc(CO)c(N5CCC(C)(CN)CC5)nc4C)c3Cl)CC2)CC1)C(C)(C)C [Example 81, (2S,4R)-1-((S)-2-acetamido-3,3-dimethylbutanoyl)-N-(2-((1-(1-(4-((5-(4-(aminomethyl)-4-methylpiperidin-1-yl)-6-(hydroxymethyl)-3-methylpyrazin-2-yl)thio)-3-chloropyridin-2-yl)piperidine-4-carbonyl)piperidin-4-yl)oxy)-4-(4-methylthiazol-5-yl)benzyl)-4-hydroxypyrrolidine-2-carboxamide]
94.9%	97.4%	CC(=O)N[C@H](C(=O)N1C[C@H](O)C[C@H]1C(=O)NCc1ccc(-c2scnc2C)cc1OC1CCN(C(=O)C2CCN(c3cccc(Sc4cnc(N5CCC(C)(CN)CC5)cn4)c3Cl)CC2)CC1)C(C)(C)C [Example 82, (2S,4R)-1-((S)-2-acetamido-3,3-dimethylbutanoyl)-N-(2-((1-(1-(3-((5-(4-(aminomethyl)-4-methylpiperidin-1-yl)pyrazin-2-yl)thio)-2-chlorophenyl)piperidine-4-carbonyl)piperidin-4-yl)oxy)-4-(4-methylthiazol-5-yl)benzyl)-4-hydroxypyrrolidine-2-carboxamide]
97.8%	99.7%	CC(=O)N[C@H](C(=O)N1C[C@H](O)C[C@H]1C(=O)NCc1ccc(-c2scnc2C)cc1OC1CCN(C(=O)C2CCN(c3cccc(Sc4cnc(N5CCC(C)(CN)CC5)c(CO)n4)c3Cl)CC2)CC1)C(C)(C)C [Example 83, (2S,4R)-1-((S)-2-acetamido-3,3-dimethylbutanoyl)-N-(2-((1-(1-(3-((5-(4-(aminomethyl)-4-methylpiperidin-1-yl)-6-(hydroxymethyl)pyrazin-2-yl)thio)-2-chlorophenyl)piperidine-4-carbonyl)piperidin-4-yl)oxy)-4-(4-methylthiazol-5-yl)benzyl)-4-hydroxypyrrolidine-2-carboxamide]
92.4%	99.9%	CC(=O)N[C@H](C(=O)N1C[C@H](O)C[C@H]1C(=O)NCc1ccc(-c2scnc2C)cc1OC1CCN(C(=O)C2CCN(c3cccc(Sc4cnc(N5CCC(C)(N)CC5)c(CO)n4)c3Cl)CC2)CC1)C(C)(C)C [Example 84, (2S,4R)-1-((S)-2-acetamido-3,3-dimethylbutanoyl)-N-(2-((1-(1-(3-((5-(4-amino-4-methylpiperidin-1-yl)-6-(hydroxymethyl)pyrazin-2-yl)thio)-2-chlorophenyl)piperidine-4-carbonyl)piperidin-4-yl)oxy)-4-(4-methylthiazol-5-yl)benzyl)-4-hydroxypyrrolidine-2-carboxamide]
